Patent US12201594B2, “Methods and compositions for treatment of pain using capsaicin” (Centrexion Therapeutics Corporation, priority 2017, dated 2025)

Legend:
[1] = tested on: human patients experiencing osteoarthritic knee joint pain; assay: Safety assessments (TEAEs, SAEs, procedural pain ratings) after single intra-articular injection of capsaicin with cooling and lidocaine, Example 1; type: in vivo; conditions: for All TEAEs / Arthralgia / Hepatic enzyme increased / Influenza / Joint effusion / Nasopharyngitis / Upper respiratory tract infection: through 24 weeks
Description: (§1) Human patients experiencing osteoarthritic knee joint pain received either placebo, a 0.5 mg intra-articular injection of capsaicin into the osteoarthritic knee joint, or a 1.0 mg intra-articular injection of capsaicin into the osteoarthritic knee joint. Transient burning sensation due to administration of capsaicin was attenuated by administering capsaicin according to the following procedure: (i) applying for a duration of about 15 minutes a cooling article to an exterior surface of a human patient's knee presenting with osteoarthritic knee joint pain, wherein the cooling article was a Breg cooling wrap cooled by circulating ice-cold water, (ii) administering by injection into the intra-articular space of the joint of the knee a 15 mL aliquot of a 2% w/w lidocaine solution in saline, (iii) applying for a duration of about 30 minutes a cooling article to an exterior surface of the knee, wherein the cooling article was a Breg cooling wrap cooled by circulating ice-cold water, (iv) administering by injection into the intra-articular space of the joint of the knee a 4 mL aliquot of a solution containing water, polyethylene glycol having a number-average molecular weight of about 300 g/mol, and for patients receiving capsaicin a dose of capsaicin in an amount of 0.5 mg or 1.0 mg, and (v) applying a cooling article to an exterior surface of the knee for a duration of at least about 30 minutes (and up to 60) minutes upon patient request), wherein the cooling article was a Breg cooling wrap cooled by circulating ice-cold water. Further description of experimental procedures and results are provided below:
(§2) Human patients aged 45-80 years with chronic knee osteoarthritis, stable moderate to severe pain, and intolerability to analgesics were randomized to receive a single intra-articular injection of placebo into the osteoarthritic knee, a single intra-articular injection of a 0.5 mg dose of capsaicin into the osteoarthritic knee, or a single intra-articular injection of a 1.0 mg dose of capsaicin into the osteoarthritic knee.
as §1, with “The test article (i.e., placebo” for “Human patients experiencing osteoarthritic knee joint pain received either placebo, a 0.5 mg intra-articular injection of capsaicin into the osteoarthritic knee joint,”, “capsaicin)” for “a 1.0 mg intra-articular injection of capsaicin into the osteoarthritic knee joint. Transient burning sensation due to administration of capsaicin”, “administered” for “attenuated by administering capsaicin”, “60” for “60)”, “water.” for “water. Further description of experimental procedures and results are provided below:”
Safety assessments included treatment-emergent adverse events (TEAEs), serious AEs (SAEs), laboratory abnormalities, and procedural pain ratings (none, mild, moderate, moderately severe, severe). The procedure pain ratings characterize the extent of transient burning sensation experienced by patients due to administration of capsaicin.

[2] = tested on: osteoarthritic knee joint pain; assay: Patient Global Impression of Change (PGIC), Example 1; type: in vivo, human
Description: as §2
as §1, with “The test article (i.e., placebo” for “Human patients experiencing osteoarthritic knee joint pain received either placebo, a 0.5 mg intra-articular injection of capsaicin into the osteoarthritic knee joint,”, “capsaicin)” for “a 1.0 mg intra-articular injection of capsaicin into the osteoarthritic knee joint. Transient burning sensation due to administration of capsaicin”, “administered” for “attenuated by administering capsaicin”, “60” for “60)”, “water.” for “water. Further description of experimental procedures and results are provided below:”
(§3) Patients completed Patient Global Impression of Change (PGIC; change vs baseline in index knee on 7-point scale; 1=very much improved; 7=very much worse, with scores of 1 or 2 indicating significant improvement) and Patient-specific Functional Scale (PSFS; rate≤3 important activities difficult to perform due to index knee pain on 0-10 scale; 0-able to perform; 10=unable to perform) at scheduled visits. Odds ratios for PGIC scores were calculated with chi-square tests. Changes in Western Ontario and McMaster Universities Osteoarthritis Index (WOMAC) B stiffness subscale and WOMAC C function subscale through week 24 were also assessed. PSFS, WOMAC B, and WOMAC C scores were evaluated using a mixed model for repeated measures. Statistical tests were 2-sided (alpha, P=0.10).

[3] = tested on: osteoarthritic knee joint pain; assay: Patient-specific Functional Scale (PSFS), Example 1; type: in vivo, human
Description: as §2
as §1, with “The test article (i.e., placebo” for “Human patients experiencing osteoarthritic knee joint pain received either placebo, a 0.5 mg intra-articular injection of capsaicin into the osteoarthritic knee joint,”, “capsaicin)” for “a 1.0 mg intra-articular injection of capsaicin into the osteoarthritic knee joint. Transient burning sensation due to administration of capsaicin”, “administered” for “attenuated by administering capsaicin”, “60” for “60)”, “water.” for “water. Further description of experimental procedures and results are provided below:”
as §3

[4] = tested on: osteoarthritic knee joint pain; assay: WOMAC B stiffness subscale and WOMAC C function subscale, Example 1; type: in vivo, human; conditions: 1.0 mg dose; through week 16
Description: as §2, with “knee. […]” for “knee.”
as §3, with “Statistical tests were 2-sided (alpha, P=0.10).” left out

[5] = tested on: pain due to an intermetatarsal neuroma; assay: Average walking pain due to intermetatarsal neuroma (NPRS) after two doses of trans-capsaicin, Example 3; type: in vivo, human; conditions: 200 μg
Description: Twenty-seven adult, human patients experiencing pain due to an intermetatarsal neuroma were treated by administering a first dose of trans-capsaicin (200 μg of trans-capsaicin) and then, after at least 11 weeks, administered a second dose of trans-capsaicin (200 μg of trans-capsaicin). Patients rated their average walking pain due to the intermetatarsal neuroma on a Numeric Pain Rating Scale (NPRS), where pain is characterized by the patient on a scale of zero to ten (with zero being “no pain”, and ten being “worst possible pain”). Patients rated their average walking pain due to the intermetatarsal neuroma on (i) just prior to receiving the injection of trans-capsaicin and (ii) four (4) weeks after receiving each injection of trans-capsaicin. Patients reported a reduction in average walking pain due to the intermetatarsal neuroma when measured at four weeks after injection of trans-capsaicin for each administration of trans-capsaicin. […]
Pain due to the intermetatarsal neuroma was evaluated by having patients rate their average walking pain due to the intermetatarsal neuroma on a Numeric Pain Rating Scale (NPRS), where pain is characterized by the patient on a scale of zero to ten (with zero being “no pain”, and ten being “worst possible pain”). […]

[6] = 2 hours after injection, all groups (capsaicin or placebo)
[7] = either 0.5 mg or 1.0 dose (n = 105)

## COc1cc(CNC(=O)CCCCC=CC(C)C)ccc1O [Capsaicin, N-[(4-hydroxy-3-methoxyphenyl)methyl]-8-methylnon-6-enamide]
[1]; 0.5 mg dose IA (n = 34)
  All TEAEs: 16 (47) n (%)
  Arthralgia: 3 (8.8) n (%)
  Hepatic enzyme increased: 2 (5.9) n (%)
  Influenza: 1 (2.9) n (%)
  Joint effusion: 3 (8.8) n (%)
  Nasopharyngitis: 1 (2.9) n (%)
  Upper respiratory tract infection: 2 (5.9) n (%)
[1]; 1.0 mg dose IA (n = 71)
  All TEAEs: 21 (30) n (%)
  Arthralgia: 5 (7.0) n (%)
  Hepatic enzyme increased: 1 (1.4) n (%)
  Influenza: 2 (2.8) n (%)
  Joint effusion: 0 n (%)
  Nasopharyngitis: 2 (2.8) n (%)
  Upper respiratory tract infection: 3 (4.2) n (%)
[1]; [6]
  patients reporting mild pain (procedural pain rating): 39%
  patients reporting no pain (procedural pain rating): 50%
[1]; capsaicin 0.5 mg dose
  Incidence of TEAEs: 47%
  TEAEs mild in severity: 29%
  TEAEs moderate in severity: 18%
[1]; capsaicin 0.5 mg dose group, not considered treatment related
  SAE: One SAE (shoulder pain from osteoarthritis)
[1]; capsaicin 1.0 mg dose
  Incidence of TEAEs: 30%
  TEAEs mild in severity: 20%
  TEAEs moderate in severity: 9.9%
  arthralgia (TEAE): 7.0%
[1]; capsaicin regardless of dose
  arthralgia (TEAE): 7.6%
  upper respiratory tract infection (TEAE): 4.8%
[1]; [7]
  All TEAEs: 37 (35) n (%)
  Arthralgia: 8 (7.6) n (%)
  Hepatic enzyme increased: 3 (2.9) n (%)
  Influenza: 3 (2.9) n (%)
  Joint effusion: 3 (2.9) n (%)
  Nasopharyngitis: 3 (2.9) n (%)
  Upper respiratory tract infection: 5 (4.8) n (%)
[1]; single injection, 1.0 mg dose, up to 24 weeks, comparable to placebo
  tolerability / safety profile: well tolerated
[2]; 0.5 mg dose, week 4
  PGIC: Odds Ratio vs Placebo: 1.76
  PGIC: proportion of patients reporting significant improvement in the index knee: 58%
[2]; 0.5 mg dose, week 8
  PGIC: Odds Ratio vs Placebo: 1.89
[2]; 0.5 mg dose, week 12
  PGIC: Odds Ratio vs Placebo: 2.75
[2]; 0.5 mg dose, week 16
  PGIC: Odds Ratio vs Placebo: 2.37
[2]; 0.5 mg dose, week 24
  PGIC: Odds Ratio vs Placebo: 1.68
[2]; 1.0 mg dose, week 4
  PGIC: Odds Ratio vs Placebo: 2.34
  PGIC: proportion of patients reporting significant improvement in the index knee: 64%
[2]; 1.0 mg dose, week 8
  PGIC: Odds Ratio vs Placebo: 2.50
[2]; 1.0 mg dose, week 12
  PGIC: Odds Ratio vs Placebo: 2.40
[2]; 1.0 mg dose, week 16
  PGIC: Odds Ratio vs Placebo: 1.85
[2]; 1.0 mg dose, week 24
  PGIC: Odds Ratio vs Placebo: 1.64
[2]; 1.0 mg dose, weeks 4, 8 and 12
  PGIC: likelihood of significant improvement compared with placebo: greater than two-fold likelihood
[3]; 0.5 mg dose, week 4
  PSFS: LSMD versus Placebo: 0.01
[3]; 0.5 mg dose, week 8
  PSFS: LSMD versus Placebo: −0.03
[3]; 0.5 mg dose, week 12
  PSFS: LSMD versus Placebo: −0.4
[3]; 0.5 mg dose, week 16
  PSFS: LSMD versus Placebo: −0.5
[3]; 0.5 mg dose, week 24
  PSFS: LSMD versus Placebo: −0.05
[3]; 1.0 mg dose, week 4
  PSFS: LSMD versus Placebo: −1.4
[3]; 1.0 mg dose, week 8
  PSFS: LSMD versus Placebo: −0.9
[3]; 1.0 mg dose, week 12
  PSFS: LSMD versus Placebo: −1.1
[3]; 1.0 mg dose, week 16
  PSFS: LSMD versus Placebo: −0.9
[3]; 1.0 mg dose, week 24
  PSFS: LSMD versus Placebo: −0.5
[3]; 1.0 mg dose, weeks 4-16
  PSFS: ability to perform activities versus placebo: significantly improved
[4]
  WOMAC B score, LSMD versus placebo: −2.1
  WOMAC C score, LSMD versus placebo: −14.8

## COc1cc(CNC(=O)CCCCC=CC(C)C)ccc1O [trans-capsaicin, N-[(4-hydroxy-3-methoxyphenyl)methyl]-8-methylnon-6-enamide]
[5]; four weeks after first dose, vs prior to first dose
  reduction in average walking pain due to the intermetatarsal neuroma (NPRS): 1.6 point
[5]; four weeks after second dose, vs just prior to second dose
  reduction in average walking pain due to the intermetatarsal neuroma (NPRS): 2.3 point
